Assay results as given in article PMC7727793, “Aggregation Behavior, Antibacterial Activity and Biocompatibility of Catanionic Assemblies Based on Amino Acid-Derived Surfactants” (International Journal of Molecular Sciences, 2020).
Entries after “also recorded” stand apart in the source; their conditions may differ.

Columns and labels:
[1] = test system: all microorganisms tested; experiment: Broth microdilution MIC, statement for all microorganisms tested; assay type: cell-based
Procedure: Antibacterial assays were conducted in vitro using the broth microdilution method. The minimum inhibitory concentration (MIC) is the smallest concentration of antibacterial agent at which bacterial growth is not observed. MIC values were determined for 4 Gram-positive bacteria (methicillin-resistant Staphylococcus aureus ATCC 43300 (MRSA), Bacillus subtilis ATCC 6633, Kocuria rhizophila 9341, Staphylococcus epidermidis ATCC 12228), 3 Gram-negative bacteria (Klebsiella pneumoniae ATCC 4532, Pseudomonas aeruginosa ATCC 27853, Escherichia coli ATCC 8739) and the fungal strain, Candida albicans ATCC 10231. Frozen stocks of bacteria were incubated on Muller Hinton agar plates for 24 h at 37 °C. From this culture, a bacterial suspension of 1 × 10^6 colony forming units CFU/mL was prepared in MHB (pH = 7.3). Two dilutions of pure surfactants and their binary mixtures were prepared in MH broth to obtain a final concentration ranging from 4 to 454 μM in the microtiter plates.
Then, 10 μL of nutrient broth culture of each microorganism was added to achieve a final density of ca. 5 × 10^5 CFU/mL. The cultures were incubated for 24 h at 37 °C. Every assay was repeated three times.

Solubility in water = assay type: physicochemical

With `CCCCCCCCCCCC(=O)N[C@@H](CCCCNC(C)=O)C(=O)O` [C12C3L, N^α-lauroyl-N^εacetyl lysine] the MIC ([1]; K. rhizophila, B. subtilis, S. epidermidis, S. aureus, K. pneumoniae, E. coli, P. aeruginosa, C. albicans, higher concentrations precipitated, read-out: MIC for all microorganisms tested) was > 113 µM, the “Antibacterial activity (in words)” value ([1]; tested microorganisms) was “did not show activity” and the Solubility in water (Solubility in water) was “too low to determine a CMC; also recorded: not soluble in water”.
